According to ChEMBL document CHEMBL1150552, “Silyl ethers of cycloheptene, novel proton pump inhibitors obtained during the total synthesis of the scopadulcic acids” (Bioorg Med Chem Lett, 1995):

Columns and labels:
[1] = molecular target: T1, Potassium-transporting ATPase (Sus scrofa) (UniProt P18434+P19156); experiment: Inhibition of procine gastric H+,K+-ATPase at 100 uM in vitro.; type: tissue-based; settings: Stomach
[2] = molecular target: T1, Potassium-transporting ATPase (Sus scrofa); experiment: Inhibition of procine gastric H+,K+-ATPase at 10 uM in vitro.; type: tissue-based; settings: Stomach
[3] = molecular target: T1, Potassium-transporting ATPase (Sus scrofa); experiment: Inhibition of procine gastric H+,K+-ATPase at 1 uM in vitro.; type: tissue-based; settings: Stomach
[4] = Michaelis-Menten constant of the compound.; type: ADME, Sus scrofa; settings: pig
[5] = Vmax value was measured at 10 uM concentration of silyl ether.; type: ADME, Sus scrofa; settings: pig
[6] = Vmax value was measured at 5 uM concentration of silyl ether.; type: ADME, Sus scrofa; settings: pig
[7] = molecular target: Potassium-transporting ATPase (Sus scrofa, UniProt P19156); experiment: Tested for inhibitory activity against gastric H+, K+-ATPase; type: tissue-based, Stomach
[8] = Vmax value was measured at 0 uM concentration of silyl ether.; type: ADME, Sus scrofa; settings: pig

Potassium-transporting ATPase, sequence (P18434 whole entry): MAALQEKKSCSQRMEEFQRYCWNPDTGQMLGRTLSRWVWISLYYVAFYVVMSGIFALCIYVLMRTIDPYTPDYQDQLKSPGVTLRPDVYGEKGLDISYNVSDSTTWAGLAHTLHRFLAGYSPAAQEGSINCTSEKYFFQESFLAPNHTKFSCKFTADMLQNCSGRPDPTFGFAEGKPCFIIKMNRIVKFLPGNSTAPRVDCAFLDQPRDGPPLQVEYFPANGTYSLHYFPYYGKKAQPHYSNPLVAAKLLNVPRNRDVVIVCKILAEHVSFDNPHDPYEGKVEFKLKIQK
Potassium-transporting ATPase, sequence (P19156 whole entry): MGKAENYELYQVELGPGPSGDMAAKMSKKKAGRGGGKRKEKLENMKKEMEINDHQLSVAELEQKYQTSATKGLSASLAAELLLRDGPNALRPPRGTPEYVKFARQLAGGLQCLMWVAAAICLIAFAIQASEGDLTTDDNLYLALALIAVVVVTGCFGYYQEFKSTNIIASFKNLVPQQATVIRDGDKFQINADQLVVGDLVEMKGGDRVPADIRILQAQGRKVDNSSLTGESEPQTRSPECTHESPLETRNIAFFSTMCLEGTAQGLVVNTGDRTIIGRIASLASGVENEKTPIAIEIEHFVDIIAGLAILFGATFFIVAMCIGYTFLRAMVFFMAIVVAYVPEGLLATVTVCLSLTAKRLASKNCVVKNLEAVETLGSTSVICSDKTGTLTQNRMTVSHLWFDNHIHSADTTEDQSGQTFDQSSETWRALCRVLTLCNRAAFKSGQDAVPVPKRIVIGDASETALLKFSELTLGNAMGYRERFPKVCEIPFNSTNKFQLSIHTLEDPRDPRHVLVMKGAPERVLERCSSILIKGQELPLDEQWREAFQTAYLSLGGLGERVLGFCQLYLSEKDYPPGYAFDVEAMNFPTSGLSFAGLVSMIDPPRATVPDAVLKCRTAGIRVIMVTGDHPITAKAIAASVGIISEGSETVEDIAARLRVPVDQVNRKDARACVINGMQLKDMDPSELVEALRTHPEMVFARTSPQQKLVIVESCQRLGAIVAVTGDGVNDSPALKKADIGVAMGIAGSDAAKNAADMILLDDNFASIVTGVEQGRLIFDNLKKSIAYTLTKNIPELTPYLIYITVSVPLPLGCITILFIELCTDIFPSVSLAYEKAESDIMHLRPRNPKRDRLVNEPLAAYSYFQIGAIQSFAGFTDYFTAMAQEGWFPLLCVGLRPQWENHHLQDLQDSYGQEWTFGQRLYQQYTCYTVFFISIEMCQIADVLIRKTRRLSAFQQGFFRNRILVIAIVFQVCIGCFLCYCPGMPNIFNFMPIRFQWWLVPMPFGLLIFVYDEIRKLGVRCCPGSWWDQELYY

inhibition [1] [%] | inhibition [2] [%] | inhibition [3] [%] | Km [4] [µM] | Vmax [5] [µM/h/mg] | Vmax [6] [µM/h/mg] | IC50 [7] [µM] | Vmax [8] [µM/h/mg] | Compound
55 | 16 | 1 | – | – | – | – | – | CO[C@H]1C[C@@H]2C[C@@H]3OC(=O)c4cccc(c43)[C@]23CC[C@@]1(C)C3
0 | 19 | 18 | – | – | – | – | – | C[C@]12CC[C@@]3(C1)c1ccccc1C(=O)C[C@H]3C[C@@H]2O
42 | 17 | – | – | – | – | – | – | CO[C@H]1C[C@@H]2CC(=O)c3ccccc3[C@]23CC[C@@]1(C)C3
72 | 19 | 10 | – | – | – | – | – | CC1=CCC(CC(O)c2ccccc2I)C(=O)CC1 (configuration not stated)
95 | 74 | 30 | 460 | 31 | 63 | 8.2 | 125 | CC1=CCC(CC(O[Si](C)(C)C(C)(C)C)c2ccccc2I)C(=O)CC1 (configuration not stated)
8 | 14 | 9 | – | – | – | – | – | CO[C@H]1C[C@@H]2CC(=O)C3=C(CCC[C@@]3(C)CO)[C@]23CC[C@@]1(C)C3
61 | 9 | 16 | – | – | – | – | – | C[C@]12C=CC3=CC(=O)c4ccccc4[C@@]3(CC1)C2
81 | 74 | 36 | – | – | – | – | – | COC(=O)[C@]1(C)CCC[C@@]2(C)[C@H]1[C@H](OC(=O)c1ccccc1)C[C@H]1CC(=O)[C@@]3(C)CC[C@]12C3
17 | 17 | 8 | – | – | – | – | – | C[C@]12CC[C@]3(C1)C(=CC(=O)c1ccccc13)C[C@@H]2O
63 | 35 | 8 | – | – | – | – | – | C=C[C@@]1(C)C[C@@H]1C(=O)CCC(O)c1ccccc1I (some centres not stated)
98 | 63 | 15 | – | – | – | – | – | C=C1CCC(C)=CCC1CC(O[Si](C)(C)C(C)(C)C)c1ccccc1I (configuration not stated)
52 | 44 | 25 | – | – | – | – | – | COCO[C@H]1C[C@@H]2C[C@@H](O[Si](C)(C)C)C3[C@](C#N)(COCc4ccccc4)CCC[C@]3(C)[C@]23CC[C@@]1(C)C3 (some centres not stated)
52 | 9 | -2 | – | – | – | – | – | C[C@]12CCC3=CC(=O)c4ccccc4[C@@]3(CC1)C2
21 | 0 | -6 | – | – | – | – | – | CO[C@H]1C[C@@H]2C[C@H](O)c3c(C(=O)O)cccc3[C@]23CC[C@@]1(C)C3
67 | 32 | 4 | – | – | – | – | – | COCO[C@H]1C[C@@H]2C[C@@H](O[Si](C)(C)C)C3[C@@H](C#N)CCC[C@]3(C)[C@]23CC[C@@]1(C)C3 (some centres not stated)
34 | 9 | 11 | – | – | – | – | – | CC1=CCC(CCO)C(=O)CC1 (configuration not stated)
20 | 13 | 8 | – | – | – | – | – | C=C1CCC(C)=CC[C@@H]1C[C@@H](O)C#CCCCC1OCCO1
80 | 50 | 29 | – | – | – | – | – | C=C[C@@]1(C)C[C@@H]1C(=O)CCC(O[Si](C)(C)C(C)(C)C)c1ccccc1I (some centres not stated)
62 | 21 | 7 | – | – | – | – | – | C[C@]12CC[C@]3(C1)[C@H](CC2=O)C[C@@H](OC(=O)c1ccccc1)[C@H]1[C@](C)(C(=O)O)CCC[C@@]13C
93 | 63 | 14 | – | – | – | – | – | C=C1CCC(C)=CC[C@@H]1C[C@H](/C=C(\I)CCCC1OCCO1)O[Si](C)(C)C(C)(C)C

Compound | inhibition [1] [%] | inhibition [2] [%] | inhibition [3] [%] | Km [4] [µM] | Vmax [5] [µM/h/mg] | Vmax [6] [µM/h/mg] | IC50 [7] [µM] | Vmax [8] [µM/h/mg]
COCO[C@H]1C[C@@H]2CC(=O)C3[C@@H](C#N)CCC[C@]3(C)[C@]23CC[C@@]1(C)C3 (some centres not stated) | 17 | 7 | 5 | – | – | – | – | –
